# Reference: a melting point compilation (Tetko et al.)
row,SMILES,melting point [°C]
1,Cc1cc(C(=O)NCC(=O)O)ccc1[N+](=O)[O-],216 to 218
2,CC(CC(=O)O)c1ccccc1Br (stereo not drawn),61 to 63
3,COc1ccc(Cl)cc1C(F)(F)C(=O)O,110 to 112
4,O=C(Nc1ccc(C(=O)O)c(O)c1)c1cccc(Br)c1,239 to 241
5,Nc1nc(-c2ccc(OCc3ccccc3)cc2)cs1,160 to 162
6,Cc1cc([N+](=O)[O-])cnc1N1CCCCC1C (stereo not drawn),48 to 50
7,Cc1cc(-c2nnn[nH]2)ccc1F,109 to 111
8,O=C(c1ccc(F)cc1Cl)N1CCNCC1,75 to 77
9,CNC1(c2ccccc2Cl)CCCC(=Cc2cccs2)C1=O (stereo not drawn),129 to 131
10,Nc1cc2c(cc1[N+](=O)[O-])OCC(=O)N2,323 to 325
11,CC(C)(C)c1ccc(Cl)nn1,83 to 85
12,O=[N+]([O-])c1ccc2c(c1)CCCN2,155 to 157
13,CC(C)(O)CN1CCN(C(=O)OC(C)(C)C)CC1,33 to 35
14,O=C(O)CN1c2cccc3cccc(c23)S1(=O)=O,216 to 218
15,Cc1nnc2cc(Cl)ncn12,122 to 124
16,CCC(Br)C(=O)Nc1cc(C)on1 (stereo not drawn),103 to 105
17,O=C(O)Cn1ccc2ccc(Cl)cc21,166 to 168
18,CCCCOc1ccc(-c2nnc(CCl)o2)cc1,77 to 79
19,O=C(O)C1(c2cccc(Br)c2)CCOCC1,152 to 154
20,O=S(=O)(Cl)c1cc(Br)ccc1Cl,64 to 66
21,COc1cc(F)c(C(C)=O)cc1OC,92 to 94
22,Cc1cc(C)nc(-n2cc(C(=O)O)c(C(C)C)n2)n1,171 to 173
23,O=C(O)C1CCc2cn[nH]c2C1 (stereo not drawn),234 to 236
24,CCS(=O)(=O)N1CCC(C(=O)O)(c2ccccc2)CC1,203 to 205
25,O=C(O)CCc1cc(F)ccc1F,71 to 73

row,SMILES,melting point [°C]
1,COc1ccc(C=O)cc1OCC(N)=O,136 to 138
2,Nc1ccc(S(=O)(=O)NC2CCC(O)CC2)cc1 (stereo not drawn),154 to 156
3,CCOC(=O)c1cnc(O)nc1C,179 to 181
4,O=[N+]([O-])c1ccc(Cl)c(Br)c1,57 to 59
5,COc1ccc(OCC(=O)NN)cc1,142 to 144
6,COc1ccc(Br)cc1NC(=O)C1CCC1,84 to 86
7,CC(=O)c1cc2c(cc1O)OCO2,114 to 116
8,O=CNc1ccc2c(c1)OCO2,96 to 98
9,C/C(=N\O)c1cccc(NC(=O)c2ccc(F)cc2)c1,196 to 198
10,COC(=O)c1ccccc1CS(=O)(=O)F,89 to 91
11,Cn1nnc2cc(C(=O)O)cnc21,229 to 231
12,Cc1nc(-c2ccco2)ccc1C(=O)O,174 to 176
13,COc1cccc(-n2ccnc2S)c1,149 to 151
14,COC(=O)c1coc(C(=O)CCl)c1,97 to 99
15,CCC(C)NC(=O)c1ccc(N)c(C)c1 (stereo not drawn),123 to 125
16,Cc1cc(N)ccc1N1CCSCC1,67 to 69
17,Ic1c[nH]c2ccncc12,171 to 173
18,O=C(O)c1cc2ccccc2c(Nc2ccccc2F)n1,224 to 226
19,Nc1sc2c(c1C(=O)c1ccc(Cl)cc1)CCCC2,139 to 141
20,O=C(O)C=Cc1ccc(OC(F)F)cc1,182 to 184
21,C#CCNc1nccs1,65 to 67
22,Nc1cc(Cl)c(Cl)cn1,140 to 142
23,CCC(C(=O)O)n1nnc(-c2ccc(Cl)cc2)n1 (stereo not drawn),184 to 186
24,Sc1ncn(-c2ccccc2)n1,173 to 175
25,CCc1cccc(CC)c1-n1ccnc1S,196 to 198

row,SMILES,melting point [°C]
1,CCC1NC(=O)NC1=O (stereo not drawn),115 to 119
2,Cc1ccc(C(=O)N(C)C)cc1N,97 to 99
3,CC(C)Cn1cc(C(=O)O)c2ccccc21,151 to 153
4,O=C1CCN(C(=O)c2ccccc2Cl)CC1,107 to 109
5,O=C(O)c1cccc(S(=O)(=O)F)c1,152 to 154
6,CCOc1ccccc1C(=O)NCC(=O)O,166 to 168
7,CC(C)(C)OC(=O)Nc1cc2c(cc1N)OCCO2,119 to 121
8,CCc1nn(C)c2[nH]nc(N)c12,123 to 125
9,N#Cc1ccc(NC(=O)C(=O)O)cc1Cl,203 to 205
10,Nc1nc(-c2ccc3ccccc3n2)n[nH]1,297 to 299
11,CC(=O)NC1CCCNC1 (stereo not drawn),65 to 67
12,NCc1ccc(NC(=O)CCCOc2ccccc2)cc1,96 to 98
13,Cc1ccc(C)c(S(=O)(=O)Oc2ccccc2C(=O)O)c1,120 to 122
14,CC(CC(=O)O)c1cccc(F)c1 (stereo not drawn),33 to 35
15,O=[N+]([O-])c1ccc(OC2CCNCC2)cc1,97 to 99
16,N#Cc1cccnc1-n1cncn1,201 to 203
17,NC(=O)COCc1ccccc1,92 to 94
18,CC(C)(C)OC(=O)Nc1ccccc1N,105 to 107
19,CCOC(=O)c1cnn2c3c(cnc12)CCOC3=O,246 to 248
20,Cc1nc(Cc2ccccc2)sc1C(=O)O,236 to 238
21,Cc1ccc(-c2nc3ccc(F)cc3n2C(C)C)cc1N,183 to 185
22,Nc1sc2c(c1C(=O)c1cccc(Cl)c1)CCC2,129 to 131
23,Clc1nc(-c2cccnc2)nc2sc3c(c12)CCC3,145 to 147
24,CCSc1ccc(CC(=O)O)cc1,74 to 76
25,O=Cc1ccc(OCC(=O)O)c(Br)c1,196 to 198

# Other lines, results leading:
row,melting point [°C],SMILES
1,201 to 203,Cc1ccc(N)cc1NC(=O)c1ccncc1
2,99 to 101,N#CCc1ccccc1CC(=O)O
3,177 to 179,NS(=O)(=O)c1nc2ccccc2s1
4,72 to 74,CC(C)(C)OC(=O)N[C@@H]1CCCCC[C@H]1N
5,185 to 187,CSCCC(NC(=O)c1ccco1)C(=O)O (stereo not drawn)
6,194 to 196,O=C(O)c1cc(-c2ccccc2)n(-c2ccccn2)n1
7,75 to 77,O=S(=O)(Cl)c1csc(-c2ccc(F)cc2)n1
8,163 to 167,CC(=O)N1CCc2ccccc2C1CC(=O)O (stereo not drawn)
9,197 to 199,CN(C)S(=O)(=O)c1c[nH]c(C(=O)O)c1
10,104 to 106,COC(C)(C)C(N)=NO
11,178 to 180,BrC1=CC2C(C3C=CC2(Br)C32OCCO2)C12OCCO2 (stereo not drawn)
12,185 to 187,O=C(O)c1cc2cc(F)ccc2oc1=O
13,297 to 299,Cc1nc(-c2ccc(C)c(NC(=O)CCl)c2)n[nH]1
14,102 to 104,CC(C)C(=O)N1CCC(C(=O)O)CC1
15,184 to 186,NS(=O)(=O)c1cc(F)cc([N+](=O)[O-])c1
16,164 to 166,NS(=O)(=O)c1ccc2c(c1)NCC2
17,267 to 269,Cc1cc(C(=O)O)c2ccc(F)cc2n1
18,135 to 137,O=C(O)C(Oc1ccc(Cl)cc1Br)c1ccccc1 (stereo not drawn)
19,193 to 195,Nc1cnc(Cl)c(C(=O)O)c1
20,121 to 123,C#CCSc1cccc(C(=O)O)c1
21,48 to 50,N#Cc1ccc(F)c(CO)c1
22,128 to 130,Nc1c(F)ccc(Br)c1C(=O)O
23,159 to 161,CC(=Cc1ccc(Cl)cc1)C(=O)O

row,melting point [°C],SMILES
1,269 to 271,O=c1nncc2[nH]cccc1-2
2,97 to 99,Cc1ccc(OCCCC(=O)Nc2ccc(CN)cc2)cc1
3,101 to 103,CCOC(=O)c1c(C)nn(C)c1N
4,86 to 88,COc1cc(-c2nc(CCl)cs2)ccc1O
5,174 to 176,O=C(O)c1cnnn1-c1ccccc1Cl
6,31 to 33,COc1ccc(N)cc1C
7,57 to 59,ClCc1ccc(-n2cccn2)cc1
8,142 to 144,Clc1nc(-c2ccccn2)nc2c1CCC2
9,111 to 113,N#Cc1cccc(-c2cscn2)c1
10,139 to 141,O=C(O)Cc1c[nH]c2ccc(F)cc12
11,209 to 211,O=C(O)CCSc1ccnc2cc(Cl)ccc12
12,62 to 64,Clc1cccc(-c2ccccn2)n1
13,158 to 160,CC(C)c1cc(C(=O)O)n(C)n1
14,67 to 69,CC(O)c1ccc(Oc2ccc(Br)cc2)cc1 (stereo not drawn)
15,181 to 183,O=c1[nH]c2ccccc2n1C1=CCCCC1
16,229 to 231,Cc1cc(C=CC(=O)O)cnc1N
17,309 to 311,COc1ccc2nc(O)c(C(=O)O)cc2c1
18,235 to 237,Cc1nc(-c2ccsc2)sc1C(=O)O
19,113 to 115,Cc1cc(C)c2nc(NN)cc(C)c2c1
20,86 to 88,CCn1cc(S(N)(=O)=O)cn1
21,39 to 41,Fc1cccc(F)c1-n1ccc(CCl)n1
22,78 to 80,CN(C)c1ncc(N)cn1
23,44 to 46,COCCc1nc2cc(N)ccc2o1

row,melting point [°C],SMILES
1,83 to 85,CC(=O)c1ccn(S(=O)(=O)c2ccc(C)cc2)c1
2,45 to 47,CCOC(=O)CS(=O)(=O)c1ccc(Br)cc1
3,129 to 131,Cc1ncc(C(=O)O)c(Br)c1Cl
4,147 to 149,O=C(CO)N1CCc2ccccc21
5,188 to 190,CCS(=O)(=O)c1ccc2oc(S)nc2c1
6,281 to 283,Cc1c(C(=O)O)sc2nc3n(c(=O)c12)CCC3
7,168 to 170,Cc1cccc(-c2nn(-c3ccc(F)cc3)cc2C(=O)O)c1
8,149 to 151,Cc1ccc2sc(-c3ccc(CCl)cc3)nc2c1
9,70 to 72,Nc1ncc(Cc2ccc(Cl)c(C(F)(F)F)c2)s1
10,141 to 143,O=C(O)c1cnc2c(cnn2C2CCCC2)c1
11,212 to 213,Cn1c(C(=O)O)cc2ccccc21
12,143 to 145,COc1cccc(-c2c[nH]cc2C(=O)O)c1
13,119 to 121,C#CCN1CCNC1=O
14,250 to 252,O=C(O)C=Cc1cn(-c2ccccc2)nc1-c1ccc2c(c1)OCCO2
15,239 to 241,O=C(O)c1cc(Cl)c2c(c1)OCO2
16,168 to 170,O=C(O)c1ccc(SCCCO)cc1
17,106 to 108,CC(C)(C)OC(=O)NCc1nnc(S)o1
18,107 to 109,COC(=O)c1sc(-c2cccc(Br)c2)cc1N
19,53 to 55,O=C(c1ccncc1)c1cc(F)ccc1F
20,234 to 236,CN(C)C(=O)c1c[nH]c2ccccc12
21,95 to 97,O=[N+]([O-])c1cn[nH]c1C1CC1
22,236 to 238,O=C1NC(=O)C(CCSSCCC2NC(=O)NC2=O)N1 (stereo not drawn)
